Drawing on BindingDB's records for doi:10.1016/s0960-894x(99)00670-8 (Institute, 2000), this text covers Ki for 1 molecule.

By Ki is commonly meant a measure of affinity in units of concentration, obtained from inhibition or displacement. A higher Ki goes with lower affinity.

The nature of the test: Binding affinity was determined against Opioid receptor delta 1 obtained from guinea pig brain membranes using [3H]naltrindole as radioligand.

`C[C@H]1C2Cc3ccc(N)cc3[C@@]1(C)CCN2CC1CC1` [3-Cyclopropylmethyl-6,11-dimethyl-1,2,3,4,5,6-hexahydro-2,6-methano-benzo[d]azocin-8-ylamine] returned a Ki of 12 nM.
